Structures are written as SMILES.

The target of this assay is T1, HTR2B (Homo sapiens, UniProt P41595).
T1 construct: purchased Promega (in-house HiBiT-GPCR construct library, NanoBRET)
Kind of assay: NanoBRET screen HiBiT-HTR2B in HEK293. The class given is binding. On the procedure:
Each tracer candidate was screened across the entire library of HiBiT-GPCR constructs using NanoBRET as the detection modality. As depicted in Figure 4A, the specificity of interactions was evaluated through decrease in BRET due to competitive displacement of a bound tracer by excess parental compound. Each tracer was analyzed for binding to each HiBiT-GPCR fusion in the absence and in the presence of competing parental compound. Briefly, HEK293 cells were transfected with HiBiT-GPCR constructs diluted into promoterless DNA to reduce expression and maximize translocation to the cell surface. Each tracer candidate was then screened at concentrations of 1 μM and 0.1 μM across cells expressing these fusions. Cells were treated for 1.5 h with tracer either alone or in the presence of 20 μM competing parental compound (i.e., control). BRET was measured upon addition of purified LgBiT and subsequent complementation with HiBiT genetically fused to a GPCR. The specificity of interactions was assessed through a decrease in BRET signal due to competitive displacement of the bound tracer. To further gauge the robustness of these interactions, the fold response over the control (i.e., BRETtracer/BRETcontrol) was calculated. We chose a 1.5-fold response, which translates to ≥7-fold signal over noise as the minimal threshold required to score an interaction as positive.
HiBiT-GPCR DNA constructs were diluted in 10 mM Tris pH 8 to a final concentration of 0.01 μg/μL, arrayed in 96-well plates and stored at −20 °C. For transfection, HEK293 cells were suspended in Opti-MEM (without phenol red) supplemented with 2% fetal bovine serum (Seradigm) and 100 units/mL penicillin–streptomycin (Gibco) at a final concentration of 220,000 cells/mL and dispensed into white 96-well plates at 90 μL/well. Subsequent transfections and screens were carried using an Agilent Bravo Automated Liquid Handling Platform. First, the 96-well HiBiT DNA arrays were diluted 25-fold in Opti-MEM (without serum or phenol red) to a final concentration of 0.0004 μg/μL and 20 μL of the diluted DNAs were transferred into new 96-well plates. Next, promoterless carrier DNA (1 μg/μL) was diluted 25-fold (0.04 μg/μL) and then dispensed into the diluted arrays at 20 μL/well. Following brief mixing, Viafect transfection reagent (Promega) diluted 16-fold into Opti-MEM was dispensed into the plates at 40 μL/well. After mixing by pipetting, plates were incubated for 10 min on the pipetting station deck. The DNA-transfection reagent complexes were then added to plates containing cells. To facilitate the screen, 10 μL of DNA-transfection reagent complexes were added in duplicates to the top 4 and bottom 4 rows, resulting in two identical 48-well arrays per plate. Plates with transfected cells were incubated for 18–20 h at 37 °C/5% CO2. A screen of each tracer across the entire library using two different concentrations requires duplicate plates of transfected cells. Depending on the number of tracers being screened, transfections can be scaled up using the same ratios. The next day, for each tracer, four 20× screening solutions in tracer dilution buffer (Promega) were prepared: two duplicates at final concentration of 20 μM and two duplicates at a final concentration of 2 μM. […] The four resulting solutions were diluted 4-fold in Opti-MEM without serum or phenol red to generate 5× solutions (5 µM and 0.5 µM tracer +/− 100 μM competing compound). To screen the library, a BioTek MultiFlo FX liquid dispenser was used to dispense 22.5 µL of tracer solution to the top 4 rows and 22.5 µL tracer + competing compound solution to the 4 bottom rows. Plates were briefly mixed on an orbital shaker and incubated for 1.5 h at room temperature. […] Plates were briefly mixed on an orbital shaker and incubated for 15 min to allow complementation.

T1 sequence (P41595 whole entry): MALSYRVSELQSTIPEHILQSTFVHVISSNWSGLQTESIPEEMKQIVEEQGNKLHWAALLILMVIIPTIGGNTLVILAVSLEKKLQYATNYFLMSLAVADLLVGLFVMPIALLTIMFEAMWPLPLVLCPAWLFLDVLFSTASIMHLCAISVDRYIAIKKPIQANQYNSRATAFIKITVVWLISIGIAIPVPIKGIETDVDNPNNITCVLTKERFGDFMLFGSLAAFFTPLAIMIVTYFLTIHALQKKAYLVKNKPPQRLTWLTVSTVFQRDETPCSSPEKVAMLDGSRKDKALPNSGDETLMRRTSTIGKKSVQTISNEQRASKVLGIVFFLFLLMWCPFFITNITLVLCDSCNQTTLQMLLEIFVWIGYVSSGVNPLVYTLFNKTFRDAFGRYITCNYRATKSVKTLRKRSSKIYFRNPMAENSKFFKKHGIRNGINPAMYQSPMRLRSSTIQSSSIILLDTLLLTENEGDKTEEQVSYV

Consider `COc1ccc2c(n1)c(CCNC(C)=O)cn2CCNC(=O)CCc1ccc2n1[B-](F)(F)[N+]1=C(c3ccc[nH]3)C=CC1=C2` [Azamelatonin-1-NB590], for which the “NanoBRET Fold Response” value (0.1μM tracer) was 0.98 and the “NanoBRET Fold Response” value (1μM tracer) was 0.98.
Regarding `CC(C)N(CC[C@H](c1ccccc1)c1cc(CCNC(=O)c2ccc(CNC(=O)CCc3ccc4n3[B-](F)(F)[N+]3=C(c5ccc[nH]5)C=CC3=C4)cc2)ccc1O)C(C)C` [Tolterodine-BZ-NB590], the “NanoBRET Fold Response” value (HTR2B, tracer 0.1μM) came to 0.83 and the “NanoBRET Fold Response” value (HTR2B, tracer 1μM) was found to be 1.07.
For `O=C(CCc1ccc2n1[B-](F)(F)[N+]1=C(c3ccc[nH]3)C=CC1=C2)NCCOCCOCCNC(=O)OCCOCCN1CCN(C2=Nc3ccccc3Sc3ccccc32)CC1` [Quetiapine-a-2-NB590], the “NanoBRET Fold Response” value was determined as 1.51 (HTR2B, tracer 0.1μM) and 1.14 (HTR2B, tracer 1μM).
For the molecule `Cc1cc2c(s1)Nc1ccccc1N=C2N1CCN(CCCNC(=O)CCOCCOCCOCCOCCNC(=O)CCc2ccc3n2[B-](F)(F)[N+]2=C(c4ccc[nH]4)C=CC2=C3)CC1` [Olanzapine-a-2-NB590], the “NanoBRET Fold Response” value runs as follows: (HTR2B, tracer 0.1μM) 1.12; (HTR2B, tracer 1μM) 1.36.
Turning to `O=C(CCc1ccc2n1[B-](F)(F)[N+]1=C(c3ccc[nH]3)C=CC1=C2)NCc1ccc(C(=O)NCCOCCOCCNCC(O)COc2cccc3ccccc23)cc1` (centres unmarked) [Propranolol-3-NB590], the “NanoBRET Fold Response” value was 1.13 (HTR2B, 0.1μM) and 1.00 (HTR2B, 1μM).
As to `N#CN/C(=N\CCNC(=O)c1ccc(N)cc1)NCCCOc1cccc(CN2CCCCC2)c1` [Aminopotentidine (unmodified)], the “NanoBRET Fold Response” value runs as follows: (HTR2B, other tracers/Aminopotentidine (unmodified), 0.1μM) 1.03; (HTR2B, other tracers/Aminopotentidine (unmodified), 1μM) 0.97.
`O=C(CCc1ccc2n1[B-](F)(F)[N+]1=C(c3ccc[nH]3)C=CC1=C2)NCc1ccc(C(=O)NCCOCCC(=O)N[C@@H]2CC[C@@]3(O)[C@H]4Cc5ccc(O)c6c5[C@@]3(CCN4CC3CC3)[C@H]2O6)cc1` [Naltrexone-3-NB590]: the “NanoBRET Fold Response” value (HTR2B, tracer 0.1μM) was 1.13 and the “NanoBRET Fold Response” value (HTR2B, tracer 1μM) came to 0.98.
Regarding `CC(C)N(CC[C@H](c1ccccc1)c1cc(CCNC(=O)CCOCCOCCOCCOCCNC(=O)CCc2ccc3n2[B-](F)(F)[N+]2=C(c4ccc[nH]4)C=CC2=C3)ccc1O)C(C)C` [Tolterodine-2-NB590], the “NanoBRET Fold Response” value was determined as 0.68 (HTR2B, tracer 0.1μM) and 0.81 (HTR2B, tracer 1μM).
For `Cc1nc2n(c(=O)c1CCN1CCC(c3noc4cc(F)ccc34)CC1)CCCC2OC(=O)NCCOCCOCCOCCOCCNC(=O)CCc1ccc2n1[B-](F)(F)[N+]1=C(c3ccc[nH]3)C=CC1=C2` (centres unmarked) [Risperidone-2-NB590], the “NanoBRET Fold Response” value reads like this: (HTR2B, tracer 0.1μM) 1.03; (HTR2B, tracer 1μM) 1.32.
For `O=C(CCOCCOCCOCCOCCNC(=O)CCc1ccc2n1[B-](F)(F)[N+]1=C(c3ccc[nH]3)C=CC1=C2)NCCCN1CCN(C2=Nc3cc(Cl)ccc3Nc3ccccc32)CC1` [Clozapine-a-2-NB590], the “NanoBRET Fold Response” value (HTR2B, 0.1μM tracer) amounted to 1.08 and the “NanoBRET Fold Response” value (HTR2B, 1μM tracer) turned out to be 1.14.
With `COc1ccc2[nH]c(-c3ccc(CNC(=O)CCOCCOCCOCCOCCNC(=O)CCc4ccc5n4[B-](F)(F)[N+]4=C(c6ccc[nH]6)C=CC4=C5)cc3)c(CCNC(C)=O)c2n1` [AzomelatoninICO9-2-NB590], the “NanoBRET Fold Response” value (0.1μM tracer) is given as 0.81 and the “NanoBRET Fold Response” value (1μM tracer) came to 1.08.
Take `COc1ccccc1N1CCN(CCCCN2C(=O)c3ccc(CNC(=O)CCOCCNC(=O)c4ccc(CNC(=O)CCc5ccc6n5[B-](F)(F)[N+]5=C(c7ccc[nH]7)C=CC5=C6)cc4)cc3C2=O)CC1` [NAN-190-3-NB590]: the “NanoBRET Fold Response” value (HTR2B, tracer 0.1μM) turned out to be 0.92 and the “NanoBRET Fold Response” value (HTR2B, tracer 1μM) amounted to 0.80.
`N#CN=C(NCCCOc1cccc(CN2CCCCC2)c1)NCCNC(=O)CCOCCOCCOCCOCCNC(=O)CCc1ccc2n1[B-](F)(F)[N+]1=C(c3ccc[nH]3)C=CC1=C2` [Aminopotentidine-2-NB590]: the “NanoBRET Fold Response” value runs as follows: (HTR2B, tracer 0.1μM) 0.90; (HTR2B, tracer 1μM) 0.91.
With `CN(C)CCC=C1c2ccccc2CCc2ccc(C(=O)NCCNC(=O)CCOCCOCCOCCOCCNC(=O)CCc3ccc4n3[B-](F)(F)[N+]3=C(c5ccc[nH]5)C=CC3=C4)cc21` [Amitriptyline-b-2-NB590], the “NanoBRET Fold Response” value reads like this: (tracer at 0.1μM, listed as amitriptyline-b-2-NB590) 1.05; (tracer at 1μM, listed as amitriptyline-b-2-NB590) 0.74.
Regarding `COc1ccccc1N1CCN(CCCCN2C(=O)c3ccc(CNC(=O)CCOCCOCCOCCOCCNC(=O)CCc4ccc5n4[B-](F)(F)[N+]4=C(c6ccc[nH]6)C=CC4=C5)cc3C2=O)CC1` [NAN-190-2-NB590], the “NanoBRET Fold Response” value (HTR2B, tracer 0.1μM) was found to be 0.92.
Take `O=C(CCOCCOCCOCCOCCNC(=O)CCc1ccc2n1[B-](F)(F)[N+]1=C(c3ccc[nH]3)C=CC1=C2)NCCCN1CCN(C2=Nc3ccccc3Oc3ccc(Cl)cc32)CC1` [Loxapine-a-2-NB590]: the “NanoBRET Fold Response” value runs as follows: (HTR2B, tracer 0.1μM) 1.04; (HTR2B, tracer 1μM) 1.25.
Regarding `CN(CCC=C1c2ccccc2CCc2ccccc21)C(=O)CCOCCOCCOCCOCCNC(=O)CCc1ccc2n1[B-](F)(F)[N+]1=C(c3ccc[nH]3)C=CC1=C2` [Amitriptyline-e-2-NB590], for the setting “tracer at 1μM”, the “NanoBRET Fold Response” value is 1.02.
Consider `CCCn1c(=O)c2[nH]c(-c3ccc(OCC(=O)NCCNC(=O)CCOCCNC(=O)c4ccc(CNC(=O)CCc5ccc6n5[B-](F)(F)[N+]5=C(c7ccc[nH]7)C=CC5=C6)cc4)cc3)nc2n(CCC)c1=O` [XAC-3-NB590], for which the “NanoBRET Fold Response” value runs as follows: (HTR2B, tracer 0.1μM) 1.29; (HTR2B, tracer 1μM) 0.78.
As to `CN(C)CCC=C1c2ccccc2CCc2ccc(C(=O)NCCNC(=O)CCOCCOCCOCCOCCNC(=O)CCc3ccc4n3[B-](F)(F)[N+]3=C(c5ccc[nH]5)C=CC3=C4)cc21` [Amitriptyline-a-2-NB590], the “NanoBRET Fold Response” value is on record as 0.98 (tracer at 0.1μM) and 1.09 (tracer at 1μM).
Turning to `CCOC(=O)c1cc(C#N)c(N2CCC(C(=O)NS(=O)(=O)Cc3ccccc3/C=C/C(=O)NCCNC(=O)CCc3ccc4n3[B-](F)(F)[N+]3=C(c5ccc[nH]5)C=CC3=C4)CC2)nc1C` [AZD1283-1-NB590], the “NanoBRET Fold Response” value by setting is: (HTR2B, 0.1μM) 1.31; (HTR2B, 1μM) 1.15.

Source of the values: article PMC8151276, “An Integrated Approach toward NanoBRET Tracers for Analysis of GPCR Ligand Engagement” (Molecules, 2021).
